Patent publication US20230274799A1, “SYSTEMS AND METHODS FOR PATIENT STRATIFICATION AND IDENTIFICATION OF POTENTIAL BIOMARKERS” (Berg LLC, priority 2016, published 2023)
“And” between values parts separate entries of the source, which are not always exact repeats. Equal entries are not always repeated.

What was measured:
Format in all cases: in vivo, human
[1] = Pharmacokinetics of Coenzyme Q10 in plasma during and after 144-hour continuous IV infusion; design: Coenzyme Q10 concentration in plasma, Mean ± SD: unit not given here; conditions: for Coenzyme Q10 concentration in plasma, Mean ± SD: 342 mg/kg/week
Description: Pharmacokinetics of Coenzyme Q10 was measured in the patients at time zero and at several time points during and after the 144-hour continuous intravenous (IV) infusion with Coenzyme Q10.

[2] = Phase I dose-escalation trial, dose limiting toxicities of Coenzyme Q10 monotherapy (Arm 1)
Text: The clinical trial is a multicenter, open-label, non-randomized, dose-escalation study to examine the dose limiting toxicities (DLT) of Coenzyme Q10 administered as a 144-hour continuous intravenous (IV) infusion as monotherapy (treatment Arm 1) and in combination with chemotherapy (treatment Arm 2) in patients with solid tumors. A broad range of solid tumors has been evaluated, including prostate, colon, breast, lung and pancreatic tumors, as shown in Tables 1 and 2 below. Coenzyme Q10 was administered in three consecutive 48 hour doses or two consecutive 72 hour doses, depending on the dose level. Three standard weekly chemotherapy regimens of gemcitabine, 5-fluorouracil, or docetaxel were evaluated in combination with Coenzyme Q10. Eligible patients are 18 years of age or older, afflicted with solid tumors, and relapsed/refractory to standard therapy. 85 patients have been enrolled in the trial. The monotherapy arm received Coenzyme Q10 for 6 days in continuous infusion in 28 day cycles, and the combination arms (gemcitabine, 5-fluorouracil, or docetaxel) were primed for 3 weeks with Coenzyme Q10 before initiation of standard chemotherapy, followed by weekly dosing in a 6 week cycle.
(§1) The study is a standard 3+3 dose escalation design with the dose escalated in successive cohorts of 3 to 6 patients each. Toxicity at each dose level is graded according to National Cancer Institute Common Terminology Criteria for Adverse Events (CTCAE v4.02). Safety oversight is provided by the Cohort Review Committee (CRC). If none of the 3 patients in a cohort experiences a DLT during Cycle 1, then 3 new patients may be entered at the next higher dose level following CRC review of safety and PK data from lower cohorts. The clinical trial is described in greater detail in WO2015/035094, which is incorporated by reference herein in its entirety.
DLTs were reported at 171 mg/kg in the Coenzyme Q10 monotherapy arm and at 137 mg/kg in the gemcitabine arm (maximum administered dose) and were coagulopathy-related. 3 DLTs were reported during the time period covered by Example 1. […] The event resolved in 2 days after administration of Vitamin K and fresh frozen plasma (FFP). Three additional patients were enrolled at this dose level with no additional DLTs reported. […] According to trial design, patients were being enrolled into the next lowest dose level (110 mg/kg).
Table 4. Dose limiting toxicities for Coenzyme Q10 monotherapy. The number of patients enrolled at each dose level (DL) is shown in parentheses. DL4 and DL5 were administered in two consecutive 72 hour IV infusions. All other dose levels were administered by three consecutive 48 hour IV infusions.

[3] = Phase I trial, adverse events (CTCAE v4.02)
Text: as §1
Four grade 3 events were reported. During the time period covered by Example 1, 1503 adverse events were reported. 75 events were reported as serious. Of the serious adverse events, 27 were not related, 38 were unlikely related, 8 were possibly related, one was probably related and, one was definitely related (activated partial thromboplastin time (APTT) prolonged).
The table below contains the adverse events reported with a frequency of 4% or greater.

[4] = tested on: solid tumors; assay: Tumor response evaluation in Phase I trial; conditions: Sixteen of 66 patients
Description: Tumor response was evaluated at week 2 and then after every 2 cycles. Sixteen of 66 patients (24%) maintained a minimum of Stable Disease for >4 cycles. Tumor response data was used to stratify the patients into “overall clinical benefit” or “no clinical benefit” groups.

[5] = Grade 2, 3*, adverse events with frequency of 4% or greater
[6] = time period covered by Example 1

COC1=C(OC)C(=O)C(C/C=C(\C)CC/C=C(\C)CC/C=C(\C)CC/C=C(\C)CC/C=C(\C)CC/C=C(\C)CC/C=C(\C)CC/C=C(\C)CC/C=C(\C)CCC=C(C)C)=C(C)C1=O [Coenzyme Q10]
Coenzyme Q10 concentration in plasma, Mean ± SD ([1]; Arm 1, n = 4 (footnote e), time 143.5 hr): 789 ± 161^e
Coenzyme Q10 concentration in plasma, Mean ± SD ([1]; Arm 1, n = 4 (footnote e), time 146 hr): 679 ± 141^e
Coenzyme Q10 concentration in plasma, Mean ± SD ([1]; Arm 1, n = 4 (footnote e), time 148 hr): 596 ± 143^e
Coenzyme Q10 concentration in plasma, Mean ± SD ([1]; Arm 1, n = 5, time 0 hr): 0
Coenzyme Q10 concentration in plasma, Mean ± SD ([1]; Arm 1, n = 5, time 1 hr): 289 ± 59
Coenzyme Q10 concentration in plasma, Mean ± SD ([1]; Arm 1, n = 5, time 2 hr): 297 ± 81
Coenzyme Q10 concentration in plasma, Mean ± SD ([1]; Arm 1, n = 5, time 4 hr): 304 ± 90
Coenzyme Q10 concentration in plasma, Mean ± SD ([1]; Arm 1, n = 5, time 24 hr): 463 ± 274
Coenzyme Q10 concentration in plasma, Mean ± SD ([1]; Arm 1, n = 5, time 71.5 hr): 563 ± 188
Coenzyme Q10 concentration in plasma, Mean ± SD ([1]; Arm 1, n = 5, time 73 hr): 514 ± 205
Coenzyme Q10 concentration in plasma, Mean ± SD ([1]; Arm 1, n = 5, time 74 hr): 537 ± 219
Coenzyme Q10 concentration in plasma, Mean ± SD ([1]; Arm 1, n = 5, time 142 hr): 699 ± 290
Mean plasma concentrations of Coenzyme Q10, comparison of doses ([1]; Arm 1 (monotherapy), exception: 96-hour sampling time, similar): higher for the 342 mg/kg/week dose than for the 274 mg/kg/week dose
Effect of concomitant chemotherapy on the pharmacokinetics of Coenzyme Q10 ([1]; Arm 1 vs Arm 2 at any of the dose levels): no apparent effect
Plasma profiles of Coenzyme Q10, comparison of doses ([1]; Arm 2 (chemotherapy combination therapy), first 72 hours of the infusion, distinctly higher during the second 72 hours): slightly higher for the 274 mg/kg/week dose than for the 220 mg/kg/week dose
Time to resolution of DLT event (grade 3 PTT abnormality) ([2]; Mono Dose Level 5 (171 mg/kg), after administration of Vitamin K and fresh frozen plasma): 2 days
Dose Limiting Toxicity ([2]; monotherapy DL1 - 66 mg/kg (9 enrolled), three consecutive 48 hour IV infusions, cell wraps r7-r9: Grade 3 Elevated Liver Function Test*, *readjudicated to unlikely related to protocol therapy): Grade 3 Elevated
Dose Limiting Toxicity ([2]; monotherapy DL2 - 88 mg/kg (4 enrolled), three consecutive 48 hour IV infusions): None
Dose Limiting Toxicity ([2]; monotherapy DL3 - 110 mg/kg (5 enrolled), three consecutive 48 hour IV infusions): None
Dose Limiting Toxicity ([2]; monotherapy DL4 - 137 mg/kg (4 enrolled), two consecutive 72 hour IV infusions): None
Dose Limiting Toxicity ([2]; monotherapy DL5 - 171 mg/kg (8 enrolled), two consecutive 72 hour IV infusions, cell wraps r20-r21: 1 DLT: Grade 3 PTT elevation): grade 3 partial thromboplastin time (PTT) abnormality and 1 DLT: Grade 3
Number of DLTs reported ([2]; whole trial (mono and combination arms), time period covered by Example 1): 3
Anemia, Number of Occurrences ([3]; Grade 2, 3): 38
Anemia, Percentage of Occurrences ([3]; Grade 2, 3): (15%)
Elevated AST, Number of Occurrences ([3]; Grade 2, 3): 14
Elevated AST, Percentage of Occurrences ([3]; Grade 2, 3): (6%)
Fatigue, Number of Occurrences ([3]; Grade 2, 3): 11
Fatigue, Percentage of Occurrences ([3]; Grade 2, 3): (4%)
Elevated PT/PTT/INR, Number of Occurrences [3, 5]: 67
Elevated PT/PTT/INR, Percentage of Occurrences [3, 5]: (26%)
Thrombocytopenia, Number of Occurrences ([3]; Grade 2, 3, 4*): 34
Thrombocytopenia, Percentage of Occurrences ([3]; Grade 2, 3, 4*): (13%)
Hypertriglyceridemia, Number of Occurrences ([3]; Grade 2, 4*): 15
Hypertriglyceridemia, Percentage of Occurrences ([3]; Grade 2, 4*): (6%)
Number of grade 3 PT/PTT/INR prolongation events reported ([3]; in vivo): Four
Most common related adverse events ([3]; mitigated after Vitamin K administration): grade 1-2 prothrombin time (PT)/partial thromboplastin time(PTT)/International Normalized Ratio (INR) prolongation
Serious adverse events not related ([3]; of 75 serious events): 27
Serious adverse events possibly related ([3]; of 75 serious events): 8
Serious adverse events probably related ([3]; of 75 serious events): one
Serious adverse events unlikely related ([3]; of 75 serious events): 38
Serious adverse events definitely related ([3]; of 75 serious events, activated partial thromboplastin time (APTT) prolonged): one
Number of adverse events reported [3, 6]: 1503
Number of events reported as serious [3, 6]: 75
Patients who maintained a minimum of Stable Disease for >4 cycles [4]: 24%
